Source: ChEMBL document CHEMBL6092155, “211At radiolabeled APBA-FAPI for enhanced targeted-alpha therapy of glioma” (Eur J Med Chem, 2024)
Each block holds one compound with its values, some of them ahead of it. The source made the active and inactive calls. The rule behind the calls is not given here.

Legend:
[1] = Octanol/[…] partition coefficient, log P of the compound; format: physicochemical
[2] = Drug penetration in human FAPalpha-positive U-87 MG cells assessed as blood brain barrier translocation rate incubated upto 4 hrs by invitro BBB assay (reference value: 0.54+/-0.12%); format: ADME, cell-based; details: u-87mg atcc
[3] = Drug uptake in human FAPalpha-negative MCF7 cells incubated for 120 min by gamma counter analysis relative to control; format: ADME, cell-based; details: mcf7, 2 h
[4] = system: U-87 MG; test: Antitumor activity against human U-87 MG cells assessed as inhibition of cell proliferation by measuring reduction in number of Ki67 positive cells at 1.11 MBq, iv administered for 7 days by immunohistochemical analysis; format: functional, organism-based; details: U-87MG ATCC, time 7.0 day, tested as the 211At-labelled form
[5] = system: U-87 MG; test: Antitumor activity against human U-87 MG cells assessed as induction of apoptosis in tumor tissue at 1.11 MBq, iv by TUNEL analysis; format: functional, organism-based; details: U-87MG ATCC, tested as the 211At-labelled form
[6] = system: U-87 MG; test: Antitumor activity against human U-87 MG cells xenografted in female BALB/c nude mouse model assessed as increase in survival time at 0.74 to 1.11 MBq, iv measured upto 70 days postinjection; format: functional, organism-based; details: U-87MG ATCC, dose 0.74-1.11 MBq, time <= 70.0 day, tested as the 211At-labelled form
[7] = Stability of the compound in fetal bovine serum incubated for 3 to 24 hrs by RCP analysis (Del); format: ADME, cell-free; details: cattle, time 3-24 hrs
[8] = Drug uptake in human FAPalpha-positive U-87 MG cells incubated for 120 min by gamma counter analysis relative to control; format: ADME, cell-based; details: u-87mg atcc, 2 h
[9] = Drug uptake in mouse FAPalpha-negative 4T1 cells incubated for 120 min by gamma counter analysis relative to control; format: ADME, cell-based; details: 4t1, 2 h
[10] = Stability of the compound in fetal bovine serum assessed as radiochemical purity (RCP) incubated for 3 to 24 hrs relative to control; format: ADME, cell-free, Bos taurus; details: cattle, time 3-24 hrs
[11] = Stability of compound in PBS incubated for 3 to 24 hrs assessed as radiochemical purity (RCP) relative to control; format: physicochemical; details: buffer; time 3-24 hrs
[12] = target: T1, Albumin (Homo sapiens, UniProt P02768); test: Binding affinity to human serum albumin assessed as binding rate incubated for 30 min relative to control; format: ADME; details: isolated protein, 0.5 h
T1 sequence (P02768 whole entry): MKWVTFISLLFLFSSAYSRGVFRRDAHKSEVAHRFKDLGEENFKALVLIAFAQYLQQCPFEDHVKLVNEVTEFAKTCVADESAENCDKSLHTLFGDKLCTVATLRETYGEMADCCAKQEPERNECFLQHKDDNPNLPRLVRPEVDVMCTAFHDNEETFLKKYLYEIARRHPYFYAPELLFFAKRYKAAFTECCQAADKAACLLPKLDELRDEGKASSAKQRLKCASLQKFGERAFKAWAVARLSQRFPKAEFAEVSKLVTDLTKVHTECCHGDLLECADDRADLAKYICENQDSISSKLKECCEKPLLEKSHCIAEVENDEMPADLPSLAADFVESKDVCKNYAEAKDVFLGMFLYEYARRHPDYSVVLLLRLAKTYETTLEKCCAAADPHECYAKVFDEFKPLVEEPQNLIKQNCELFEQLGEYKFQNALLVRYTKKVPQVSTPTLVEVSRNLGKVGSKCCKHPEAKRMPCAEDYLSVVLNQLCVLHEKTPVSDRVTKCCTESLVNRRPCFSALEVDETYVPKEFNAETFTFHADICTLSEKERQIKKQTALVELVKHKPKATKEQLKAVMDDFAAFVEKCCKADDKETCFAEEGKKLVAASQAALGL

[13] = target: T1, Albumin; test: Binding affinity to human serum albumin assessed as decrease in HAS binding incubated for 30 mins under warfarin blocking relative to control; format: ADME; design: scale not given: the % may be the effect or the level left; details: isolated protein, 0.5 h
[14] = target: T1, Albumin; test: Binding affinity to human serum albumin assessed as decrease in HAS binding incubated for 30 mins under ibuprofen relative to control; format: ADME; design: scale not given: the % may be the effect or the level left; details: isolated protein, 0.5 h
[15] = Drug uptake in human FAPalpha-positive U-87 MG cells incubated for 30 to 120 min by gamma counter analysis relative to control; format: ADME, cell-based; details: u-87mg atcc, time 30-120 min
[16] = Drug uptake in human U-87 MG cells incubated for 120 min under FAPI-04 monomer blocking condition by gamma counter analysis relative to control; format: ADME, cell-based; details: u-87mg atcc, 2 h
[17] = system: U-87 MG; test: Antiproliferative activity against human U-87 MG cells assessed as inhibition of cell viability at 18.5 KBq incubated for 12 hrs followed by replacement with fresh media and measured after 24 hrs by CCK-8 method relative to control; format: functional, U-87MG ATCC
[18] = system: U-87 MG; test: Antiproliferative activity against human U-87 MG cells assessed as inhibition of cell viability at 148 KBq incubated for 12 hrs followed by replacement with fresh media and measured after 24 hrs by CCK-8 method relative to control; format: functional, U-87MG ATCC
[19] = system: U-87 MG; test: Antitumor activity against human U-87 MG cells xenografted in female BALB/c nude mouse model assessed as tumor growth inhibition at 0.37 MBq, iv measured after 8 days postinjection relative to control; format: functional, U-87MG ATCC; details: time 8 day
[20] = system: U-87 MG; test: Antitumor activity against human U-87 MG cells xenografted in female BALB/c nude mouse model assessed as tumor growth inhibition at 0.74 MBq, iv measured after 8 days postinjection relative to control; format: functional, U-87MG ATCC; details: time 8 day
[21] = system: U-87 MG; test: Antitumor activity against human U-87 MG cells xenografted in female BALB/c nude mouse model assessed as tumor growth inhibition at 1.11 MBq, iv measured after 8 days postinjection relative to control; format: functional, U-87MG ATCC; details: time 8 day
[22] = system: U-87 MG; test: Antitumor activity against human U-87 MG cells xenografted in female BALB/c nude mouse model assessed as tumor growth inhibition at 0.37 MBq, iv measured after 36 days postinjection relative to control; format: functional, U-87MG ATCC; details: time 36 day
[23] = system: U-87 MG; test: Antitumor activity against human U-87 MG cells xenografted in female BALB/c nude mouse model assessed as tumor growth inhibition at 0.74 MBq, iv measured after 36 days postinjection relative to control; format: functional, U-87MG ATCC; details: time 36 day
[24] = Toxicity in female BALB/c nude mouse model assessed as animal death at 0.74 MBq, iv measured after 38 days; format: organism-based; details: in vivo, 912 h, time 38 day
[25] = Toxicity in female BALB/c nude mouse model assessed as animal death at 1.11 MBq, iv measured after 10 days; format: organism-based; details: in vivo, 240 h, time 10 day
[26] = Toxicity in female BALB/c nude mouse model assessed as body weight loss measured at 0.74 to 1.11 MBq, iv after 40 days of postinjection; format: organism-based; details: in vivo, 960 h, dose 0.74-1.11 MBq, time 40 day
[27] = Toxicity in female BALB/c nude mouse assessed as red blood cell count at 0.37 to 1.11 MBq, iv measured after 7 days of postinjection by blood analysis; format: organism-based; details: in vivo, 168 h, dose 0.37-1.11 MBq, time 7 day
[28] = Toxicity in female BALB/c nude mouse assessed as effect on liver at 0.37 to 1.11 MBq, iv measured after 7 days of postinjection by H and E staining based analysis; format: organism-based; details: in vivo, 168 h, dose 0.37-1.11 MBq, time 7 day
[29] = Toxicity in female BALB/c nude mouse assessed as hemoglobin indices at 0.37 to 1.11 MBq, iv measured after 7 days of postinjection by blood analysis; format: organism-based; details: in vivo, 168 h, dose 0.37-1.11 MBq, time 7 day
[30] = Toxicity in female BALB/c nude mouse assessed as decrease platelet count at 0.37 to 1.11 MBq, iv measured after 7 days of postinjection by blood analysis; format: organism-based; details: in vivo, 168 h, dose 0.37-1.11 MBq, time 7 day
[31] = Toxicity in female BALB/c nude mouse assessed as effect on lung at 0.37 to 1.11 MBq, iv measured after 7 days of postinjection by H and E staining based analysis; format: organism-based; details: in vivo, 168 h, dose 0.37-1.11 MBq, time 7 day
[32] = Toxicity in female BALB/c nude mouse assessed as effect on kidney at 0.37 to 1.11 MBq, iv measured after 7 days of postinjection by H and E staining based analysis; format: organism-based; details: in vivo, 168 h, dose 0.37-1.11 MBq, time 7 day
[33] = Toxicity in female BALB/c nude mouse assessed as effect on stomach at 0.37 to 1.11 MBq, iv measured after 7 days of postinjection by H and E staining based analysis; format: organism-based; details: in vivo, 168 h, dose 0.37-1.11 MBq, time 7 day
[34] = Toxicity in female BALB/c nude mouse assessed as thyroid gland damage at 1.11 MBq, iv measured after 7 days of postinjection by H and E staining based analysis; format: organism-based; details: in vivo, 168 h, time 7 day

- logP [1]: 2.12
SMILES: N#C[C@@H]1CC(F)(F)CN1C(=O)CNC(=O)c1ccnc2ccc(OCCCN3CCN(C(=O)c4ccc([131I])cc4)CC3)cc12

- logP [1]: 2.43
- Drug uptake [2]: 3.71%
- Drug uptake [3]: 7.77%
SMILES: N#C[C@@H]1CC(F)(F)CN1C(=O)CNC(=O)c1ccnc2ccc(OCCCN3CCN(C(=O)CCCc4ccc([131I])cc4)CC3)cc12

SMILES: N#C[C@@H]1CC(F)(F)CN1C(=O)CNC(=O)c1ccnc2ccc(OCCCN3CCN(C(=O)CCCc4ccc([At])cc4)CC3)cc12
- Activity [4]: Active
- Activity [5]: Active
- Activity [6]: Active

SMILES: N#C[C@@H]1CC(F)(F)CN1C(=O)CNC(=O)c1ccnc2ccc(OCCCN3CCN(C(=O)c4ccc([211At])cc4)CC3)cc12
- logP [1]: 1.96
- Stability [7]: 71%

- Drug uptake [8]: 2.75%
- Drug uptake [9]: 11.22%
SMILES: [211AtH]

SMILES: N#C[C@@H]1CC(F)(F)CN1C(=O)CNC(=O)c1ccnc2ccc(OCCCN3CCN(C(=O)CCCc4ccc([211At])cc4)CC3)cc12
- Stability [10]: 91.4%
- Stability [11]: 88.17%
- Activity [12]: 7.63%
- logP [1]: 2.37
- Activity [13]: 3.54%
- Activity [14]: 4.01%
- Drug uptake [2]: 2.06%
- Drug uptake [15]: 40.8%
- Drug uptake [16]: 12.86%
- inhibition (INH) [17]: 70.95%
- inhibition (INH) [18]: 48.58%
- TGI [19]: 84.98%
- TGI [20]: 92.28%
- TGI [21]: 94.99%
- TGI [22]: 10.46%
- TGI [23]: 4.2%
- Activity [24]: Toxic
- Activity [25]: Toxic
- Activity [26]: Non-toxic
- Activity [27]: Non-toxic
- Activity [28]: Non-toxic
- Activity [29]: Non-toxic
- Activity [30]: Toxic
- Activity [31]: Non-toxic
- Activity [32]: Non-toxic
- Activity [33]: Non-toxic
- Activity [34]: Toxic
